Reference: ChEMBL document CHEMBL1201862, “PubChem BioAssay data set” (2004)
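The compound was tested at five concentrations on cells cultured in 96-well plates, with a 48-hour exposure period. Here, GI50 denotes the concentration required for 50% inhibition of growth.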 The source made the active and inactive calls. Rule as the data show it: active = GI50 up to about 1.1 µM and inactive = higher.

Key:
Assay in all cases: NCI-60 cell line screen, 48 h
MDA-N = system: MDA-N
NCI/ADR-RES = system: NCI/ADR-RES
UO-31 = system: UO-31
MDA-MB-435 = system: MDA-MB-435
M14 = system: M14
SW-620 = system: SW-620
MOLT-4 = system: MOLT-4
HCC 2998 = system: HCC 2998
DU-145 = system: DU-145
RPMI-8226 = system: RPMI-8226
OVCAR-5 = system: OVCAR-5
TK-10 = system: TK-10
T47D = system: T47D
COLO 205 = system: COLO 205
SNB-75 = system: SNB-75
OVCAR-4 = system: OVCAR-4
SR = system: SR
MDA-MB-231 = system: MDA-MB-231
HCT-15 = system: HCT-15
NCI-H226 = system: NCI-H226

| Structure (SMILES) | GI50 (MDA-N) | GI50 (NCI/ADR-RES) | GI50 (UO-31) | GI50 (MDA-MB-435) | GI50 (M14) | GI50 (SW-620) | GI50 (MOLT-4) | GI50 (HCC 2998) | GI50 (DU-145) | GI50 (RPMI-8226) | GI50 (OVCAR-5) | GI50 (TK-10) | GI50 (T47D) | GI50 (COLO 205) | GI50 (SNB-75) | GI50 (OVCAR-4) | GI50 (SR) | GI50 (MDA-MB-231) | GI50 (HCT-15) [µM] | GI50 (NCI-H226) |
| --- | --- | --- | --- | --- | --- | --- | --- | --- | --- | --- | --- | --- | --- | --- | --- | --- | --- | --- | --- | --- |
| COc1ccc2c(=O)cc(-c3ccncc3)oc2c1OC | 29.2 µM (inactive) | 34 µM (inactive) | 19.7 µM (inactive) | 31.6 µM (inactive) | 19.8 µM (inactive) | 31.6 µM (inactive) | 7.57 µM (inactive) | 25.3 µM (inactive) | 24.7 µM (inactive) | 32.2 µM (inactive) | 24.6 µM (inactive) | 28.1 µM (inactive) | 48.8 µM (inactive) | 15 µM (inactive) | 18.2 µM (inactive) | 46.1 µM (inactive) | 6.67 µM (inactive) | 31.8 µM (inactive) | 28.5 |  |
| COc1cc(C=C2C(C)=NN(c3cccc(Cl)c3)C23C(Cl)C(=O)N3c2nc3ccccc3s2)ccc1O (stereo unspecified) | 16.3 µM (inactive) | 38.8 µM (inactive) | 20.7 µM (inactive) | 12.4 µM (inactive) | 11.6 µM (inactive) | 10.7 µM (inactive) | 0.461 µM (active) | 2.56 µM (inactive) | 21.9 µM (inactive) | 7.26 µM (inactive) | 20.7 µM (inactive) | 30.7 µM (inactive) | 27 µM (inactive) |  |  | 28.5 µM (inactive) | 0.111 µM (active) | 4.08 µM (inactive) | 20.7 | 22.4 µM (inactive) |
| CCOC(=O)CCc1c(C(=O)OCC)[nH]c(/C=C2/NC(=O)C(C)=C2CC)c1C | 5.83 µM (inactive) | 10.4 µM (inactive) | 2 µM (inactive) | 6.73 µM (inactive) | 7.28 µM (inactive) | 23.2 µM (inactive) | 0.0224 µM (active) |  | 16.9 µM (inactive) |  | 29.5 µM (inactive) | 24.7 µM (inactive) | 2.11 µM (inactive) | 14 µM (inactive) | 15.4 µM (inactive) | 2.9 µM (inactive) | 4.51 µM (inactive) | 13.6 µM (inactive) | 3.47 | 16.9 µM (inactive) |
| Cc1c(/N=N/c2ccc(Cl)cc2)c(C)n(C2OC(CO)C(O)C(O)C2O)c(=S)c1C#N (stereo unspecified) | 21.6 µM (inactive) | 19 µM (inactive) | 23.4 µM (inactive) | 20.2 µM (inactive) | 20 µM (inactive) | > 100 µM (inactive) | 13.9 µM (inactive) | 23.7 µM (inactive) | 20.5 µM (inactive) | 16.4 µM (inactive) | 30.5 µM (inactive) | 28.6 µM (inactive) | 32.7 µM (inactive) | 19.3 µM (inactive) | 28 µM (inactive) | 16.5 µM (inactive) |  | 18.4 µM (inactive) | 23.8 | 25.3 µM (inactive) |
| N#CC12C(=O)N3C(=NC(c4ccccc4)NC3c3ccccc3)C1(C#N)C(c1ccccc1)NC1=C2CCC1 (stereo unspecified) | > 100 µM (inactive) | > 100 µM (inactive) | > 100 µM (inactive) | > 100 µM (inactive) | > 100 µM (inactive) | > 100 µM (inactive) | > 100 µM (inactive) | > 100 µM (inactive) | > 100 µM (inactive) | > 100 µM (inactive) | > 100 µM (inactive) | > 100 µM (inactive) | > 100 µM (inactive) | > 100 µM (inactive) | > 100 µM (inactive) | > 100 µM (inactive) |  | > 100 µM (inactive) | > 100 | > 100 µM (inactive) |
| Cc1ccc(/C=N/Nc2nc3ccccc3s2)s1 | > 100 µM (inactive) | > 100 µM (inactive) | 51.6 µM (inactive) | > 100 µM (inactive) | > 100 µM (inactive) | > 100 µM (inactive) | > 100 µM (inactive) | 55.6 µM (inactive) | > 100 µM (inactive) | > 100 µM (inactive) | > 100 µM (inactive) | 69.2 µM (inactive) | 4.05 µM (inactive) | > 100 µM (inactive) | 46.3 µM (inactive) | 34.4 µM (inactive) |  | 24.7 µM (inactive) | 19.4 | > 100 µM (inactive) |
| COP(=O)(CC(=O)C1OC(OCc2ccccc2)C(OCc2ccccc2)C(OCc2ccccc2)C1OCc1ccccc1)OC (stereo unspecified) | 4.27 µM (inactive) | 4.16 µM (inactive) | 2.94 µM (inactive) | 5.38 µM (inactive) | 10.9 µM (inactive) | 12.8 µM (inactive) | 2.69 µM (inactive) | 3.32 µM (inactive) | 22 µM (inactive) |  | 17.6 µM (inactive) | 15.3 µM (inactive) | 4.3 µM (inactive) | 3.78 µM (inactive) | 7.76 µM (inactive) | 2.19 µM (inactive) | 3.26 µM (inactive) | 10.2 µM (inactive) | 4.83 | 4.91 µM (inactive) |
